Where two headings read alike, the source gives them in different places.
Experiments:
[1] = Solubility in PBS 7.4 and FaSSIF solutions; type: physicochemical; settings: thermodynamic from solid
From the text: The amorphous samples of the compound represented by formula (I) and the crystal form I samples of the dihydrochloride salt of the compound represented by formula (I) obtained in the present disclosure were further evaluated for solubility in PBS 7.4 and FaSSIF solutions.

CYP2D6 = biological target: T1, CYP2D6 (Homo sapiens, UniProt P10635); assay: Inhibition of CYP2D6 in human liver microsome; type: in vitro ADME
T1 construct: CYP2D6 in human liver microsome; tissue Corning Gentest; host or cells: human liver microsomes
Experimental: The effect of the compound represented by formula (I) on the enzyme activity of CYP2D6 in human liver microsome was determined by the following experimental method:
100 mM PBS buffer was formulated, which was then used to formulate 2.5 mg/mL microsome solution and 5 mM NADPH solution. The 5× concentration of the compound working solution was diluted with PBS gradient (150, 50, 15, 5, 1.5, 0.15, 0.015, 0 μM). The 5× concentration of quinidine working solution was diluted with PBS gradient (150, 50, 15, 5, 1.5, 0.15, 0.015, 0 μM). Dextromethorphan working solution was diluted with PBS to a concentration of 50 μM.
20 μL of the 2.5 mg/mL microsome solution, 20 μL of the 50 μM […] working solution, 20 μL of MgCl2 solution and 20 μL of the compound working solution (150, 50, 15, 5, 1.5, 0.15, 0.015, 0 μM, different reaction systems for each concentration) were taken respectively and mixed well. For the positive control group, the compound was replaced with the same concentration of quinidine. The mixture together with the 5 mM NADPH solution was pre-incubated at 37° C. for 5 minutes. After 5 minutes, 20 μL of NADPH was added to each well, the reaction was started and incubated for 30 minutes. […] 80 μL of the supernatant was taken and analyzed by LC-MS/MS.
The data were calculated by Graphpad Prism to obtain the IC50 value of the compound on the metabolite site of CYP2D6.

T1 sequence (P10635 whole entry): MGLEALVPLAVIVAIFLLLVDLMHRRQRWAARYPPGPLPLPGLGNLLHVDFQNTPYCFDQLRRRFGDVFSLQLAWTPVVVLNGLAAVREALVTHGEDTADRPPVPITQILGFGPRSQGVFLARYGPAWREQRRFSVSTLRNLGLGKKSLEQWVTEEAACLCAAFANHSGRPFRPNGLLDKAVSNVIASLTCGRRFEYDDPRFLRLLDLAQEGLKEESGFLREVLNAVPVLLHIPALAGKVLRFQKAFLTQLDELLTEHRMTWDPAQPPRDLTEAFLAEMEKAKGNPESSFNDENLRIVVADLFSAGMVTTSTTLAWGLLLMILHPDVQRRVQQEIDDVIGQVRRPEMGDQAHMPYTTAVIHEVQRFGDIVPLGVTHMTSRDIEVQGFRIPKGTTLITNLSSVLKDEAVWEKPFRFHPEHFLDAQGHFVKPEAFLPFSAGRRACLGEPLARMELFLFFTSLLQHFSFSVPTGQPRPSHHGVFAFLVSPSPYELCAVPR

CCCCOc1nc(N)c2cnn(Cc3ccc(CN4CCCC4)cc3)c2n1 [compound represented by formula (I), 6-Butoxy-1-(4-(pyrrolidin-1-ylmethyl)benzyl)-1H-pyrazolo[3,4-d]pyrimidin-4-amine]
solubility ([1]; FaSSIF solution, fassif, read-out: FasSIF Solubility): 1090 µg/mL | solubility ([1]; PBS 7.4, pH 7.4, aqueous buffer, read-out: PBS 7.4 Solubility): 30 µg/mL | inhibitory effect against CYP2D6 (in words) (CYP2D6): no inhibitory effect | IC50 (CYP2D6; dextromethorphan probe): > 30 µM

From patent US20210188856A1, “CRYSTAL FORM OF HYDROCHLORIDE OF PYRAZOLOHETEROARYL DERIVATIVE AND PREPARATION METHOD” (JIANGSU HENGRUI MEDICINE CO., LTD., priority 2018, published 2021)
